In article PMC4030970, “Structural Evidence for the Tetrameric Assembly of Chemokine CCL11 and the Glycosaminoglycan Arixtra™” (Biomolecules, 2013) one finds Kd data, which are given here for 1 molecule.

In test [1] the target is T1, CCL2 (Homo sapiens, UniProt P13500).
T1 construct: construct and preparation not described in the main text; monomer-dimer, tetramer with saturating GAG
In words: isothermal titration calorimetry. The format is binding. (In general: Isothermal titration calorimetry measures the heat released or taken up as one component is titrated into another.)

Test [2] addresses T2, CCL11 (Eotaxin-1) (Homo sapiens, UniProt P51671).
T2 construct: mature wild-type CCL11; monomer mass about 8360 Da from m/z; monomer-dimer-tetramer mixture
Nature of the test: isothermal titration calorimetry. The format is binding.

T2 sequence (P51671 24-97): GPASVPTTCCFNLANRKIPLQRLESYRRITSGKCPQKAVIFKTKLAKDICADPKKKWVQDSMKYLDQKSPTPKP
T1 sequence (P13500 24-99): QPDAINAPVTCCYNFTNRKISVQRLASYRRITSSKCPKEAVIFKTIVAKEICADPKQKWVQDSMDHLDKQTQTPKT

Broadly, the Kd is the concentration at which binding is half-saturated. On to `CO[C@H]1O[C@H](COS(=O)(=O)O)[C@@H](O[C@@H]2O[C@@H](C(=O)O)[C@@H](O[C@H]3O[C@H](COS(=O)(=O)O)[C@@H](O[C@@H]4O[C@H](C(=O)O)[C@@H](O[C@H]5O[C@H](COS(=O)(=O)O)[C@@H](O)[C@H](O)[C@H]5NS(=O)(=O)O)[C@H](O)[C@H]4O)[C@H](OS(=O)(=O)O)[C@H]3NS(=O)(=O)O)[C@H](O)[C@H]2OS(=O)(=O)O)[C@H](O)[C@H]1NS(=O)(=O)O` [Arixtra], for which the Kd in test [1] came out at 7.98 ± 0.77 µM; in test [2] it was 2710 ± 284 nM.
